Source: ChEMBL document CHEMBL1221351, “Styrylpyrones from the medicinal fungus Phellinus baumii and their antioxidant properties” (Bioorg Med Chem Lett, 2010)
Active and inactive are the calls of the source. The calls are words filed in the database; no cut-off is given here.

Key:
Assay type in all cases: functional
[1] = Antioxidant activity assessed as inhibition of fenton reaction-induced pBR322 DNA single strand break by agarose gel electrophoresis
[2] = Antioxidant activity assessed as inhibition of fenton reaction-induced pBR322 DNA single strand break by CAS assay
[3] = test system: Radical scavenging activity; experiment: Antioxidant activity assessed as DPPH radical scavenging activity
[4] = Antioxidant activity assessed as ABTS radical scavenging activity

Row | Structure (SMILES) | Activity [1] | Activity [2] | IC50 [3] | IC50 [4]
1 | O=c1cc(O)cc([C@H]2c3c(cc(/C=C/c4ccc(O)c(O)c4)oc3=O)O[C@@H]2c2ccc(O)c(O)c2)o1 | Active | Active |  | 
2 | O=c1cc(O)cc(/C=C/c2ccc(O)c(O)c2)o1 | inactive | Active |  | 
3 | O=c1oc2cc(/C=C/c3ccc(O)c(O)c3)oc(=O)c2c2cc(O)c(O)cc12 | Active | Active |  | 
4 | CC1=CC(=O)[C@H](c2c(O)cc(/C=C/c3ccc(O)c(O)c3)oc2=O)[C@@H](c2ccc(O)c(O)c2)O1 [DAVALLIALACTONE] | Active | Active | 1.2 µM | 2.8 µM
5 | CC1=CC(=O)C2(O1)c1c(cc(/C=C/c3ccc(O)c(O)c3)oc1=O)OC2c1ccc(O)c(O)c1 (stereo not drawn) | Active | Active |  | 
6 | COC(=O)CC1=CC(=O)[C@H](c2c(O)cc(/C=C/c3ccc(O)c(O)c3)oc2=O)[C@@H](c2ccc(O)c(O)c2)O1 [BAUMIN] | Active | Active | 7.5 µM | 11.7 µM
7 | CC(=O)/C=C(O)/C(=C\c1ccc(O)c(O)c1)c1c(O)cc(/C=C/c2ccc(O)c(O)c2)oc1=O | Active | Active |  | 
